The source of these data is patent publication US8673914B2, “Use of phosphodiesterase inhibitors for treating multidrug resistance” (St. John's University, priority 2011, dated 2014).

Structures are written as SMILES. Marks after values point to notes of the source that are not given here. Where only a bound is given, the exact number is not on record here.

The nature of data set [1]: MTT cytotoxicity assay (Example 4). It is filed as cell-based. Particulars: human; HEK/MRP7; alone; read-out: IC50 of paclitaxel. The method in brief:
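MTT viability assay in HEK293 cells carrying empty pcDNA3.1 or MRP7-transfected (G418-selected), seeded at 6000 cells/well in triplicate. Drug exposure 68 h. IC50 from survival curves by Bliss method.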
Background: Tetrazolium assays rely on reduction of a dye to a coloured formazan, in cell work by metabolically active cells.

Data set [2] concerns KB-V1. The data set can be described thus: MTT cytotoxicity/reversal assay (Example 2). The class given is cell-based, human. The conditions noted are these: alone. As for the experimental part: (§1) The ABCB1-overexpressing drug resistant cell line KB-V1 (generously provided by Dr. Gottesman, NCI, NIH) was established by a stepwise concentration increase of vinblastine in the culture medium of KB-3-1 cells and subsequently culturing these cells in medium with 1 μg/mL of vinblastine. An ABCC1-overexpressing MDR cell line, KB-CV60, was also derived from KB-3-1 cells and was maintained in medium with 1 μg/mL of cepharanthine and 60 ng/mL of vincristine. Both KB-C2 and KB-CV60 cell lines were kindly provided by Dr. Akiyama (Kagoshima University, Japan). HEK293/pcDNA3.1, ABCG2-482-R5, ABCG2-482-G2, and ABCG2-482-T7 cells were established by selection with 2 mg/mL G418 after transfecting HEK293 with either (1) empty pcDNA3.1 vector or (2) pcDNA3.1 vector containing full length ABCG2 coding either (2a) wild-type arginine (R) or mutant (2b) glycine (G) or (2c) threonine (T) at amino acid position 482, respectively. The wild-type ABCG2-overexpressing drug-resistant cell line MCF-7/Flv1000 was cultured in the medium with 1 μM of flavopiridol. […] Another G482 mutant ABCG2-overexpressing drug resistant cell line, S1-M1-80, was maintained in the medium with 80 μM of mitoxantrone. […] All the cell lines were grown as adherent monolayers in flasks with DMEM (Dulbecco's modified Eagle's medium) culture medium (Hyclone Co.) containing 10% bovine serum at 37° C. in a humidified atmosphere of 5% CO2.
(§2) Cells in 96-well plates were preincubated with or without the reversal agents for 1 h and then different concentrations of chemotherapeutic drugs were added into designated wells. After 68 h of incubation, MTT solution (4 mg/mL) was added to each well, and the plate was further incubated for 4 h, allowing viable cells to change the yellow-colored MTT into dark-blue formazan crystals. Subsequently the medium was discarded, and […] of DMSO was added into each well to dissolve the formazan crystals. The absorbance was determined at 570 nm by an OPSYS MR Microplate Reader from DYNEX Technologies, Inc.

Data set [3] relates to KB-3-1. The data set can be described thus: MTT cytotoxicity/reversal assay (Example 2). It is filed as cell-based, human. Particulars: alone. As for the experimental part: as §1, §2
Data set [4] concerns KB-C2. The data set can be described thus: MTT cytotoxicity/reversal assay (Example 2). It is filed as cell-based, human. The conditions noted are these: alone. As for the experimental part:
as §1, §2

Data set [5] in a line: MTT cytotoxicity/reversal assay (Example 1). Particulars: human. The method in brief:
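HEK293 cells transfected with MRP1 or ABCB1 seeded at 8×10^3 cells/well, grown in DMEM with 10% bovine serum at 37 °C, 5% CO2. MTT added after 68 h, 4 h further incubation, absorbance at 570 nm. IC50 by Bliss method; reversal fold = anticancer drug IC50 without versus with reversal agent.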

In data set [6] the target is T1, ABCB1 (Homo sapiens, UniProt P08183).
T1 construct: made in house; host or cells: High Five insect cells (membrane vesicles / crude membranes)
Put plainly: Photoaffinity labeling with [^125I]-IAAP (Example 1). The class given is binding. Particulars: for IC50: ABCB1 membrane vesicles. On the procedure: The photoaffinity labeling of ABCB1 with [^125I]-IAAP was performed as described in Sauna et al. (2000) Proc. Natl. Acad. Sci. USA 97:2515-20. The membrane vesicles from High Five™ insect cells expressing ABCB1 (50 μg of protein) were incubated at room temperature with different concentrations of drugs in the ATPase assay buffer with [^125I]-IAAP (7 nM) for 5 min under subdued light. […] Subsequently, the samples were run in a 7% Tris-acetate NuPAGE gel on SDS-PAGE; and the gels were dried and exposed to Bio-Max MR film (Eastman Kodak Co., Rochester, N.Y.) at −70° C. for 8-12 h. The radioactivity incorporated into the ABCB1 band was quantified using the STORM 860 PhosphorImager system and ImageQuaNT (Molecular Dynamics, CA).

Data set [7] deals with any cell lines tested. Put plainly: MTT assay, vardenafil or tadalafil alone. The class given is cell-based. The conditions noted are these: concentrations of up to 20 μM. As for the experimental part:
The MTT assay was used to assess cytotoxicity. The cultured cells were harvested with trypsin and resuspended in a final concentration of 4×10^3 cells/well for KB-3-1; 7.5×10^3 cells/well for KB-C2; and 8×10^3 for all of the other cell lines used in this study. Cells were seeded evenly in 96-well multiplates. […] After 68 h of incubation, 20 μl of the MTT solution (4 mg/ml) was added to each well, and the plate was further incubated for 4 h at 37° C., allowing viable cells to convert the yellow-colored MTT into dark-blue formazan crystals. Subsequently, the medium was discarded, and 100 μl of DMSO was added into each well to dissolve the formazan crystals, generating purple color. The absorbance was determined at 570 nm by an OPSYS Microplate Reader from DYNEX Technologies, Inc. (Chantilly, Va.). […] The degree of the reversal of multidrug resistance (MDR) was calculated by dividing the IC50 of an anticancer drug, e.g., an antineoplastic or chemotherapeutic drug (agent, compound), in a cell type in the absence of a reversal agent by the IC50 of the anticancer drug in the same cell type in the presence of the reversal agent. The IC50 values were calculated from survival curves using the Bliss method.

Data set [8] concerns KB-3-1 cells. Put plainly: [^3H]-paclitaxel efflux (Example 1). It is filed as cell-based, human. Particulars: absence or presence of vardenafil. As for the experimental part:
(§3) The cells were washed three times with ice-cold PBS, then suspended in fresh medium with or without reversal agents at 37° C. […] Each sample was placed in scintillation fluid and the radioactivity was measured in a Packard TRI-CARB1 1900CA liquid scintillation analyzer from Packard Instrument Company, Inc. (Downers Grove, Ill.).

Data set [9] relates to KB-3-1 cells. Put plainly: [^3H]-paclitaxel accumulation (Example 1). The class given is cell-based, human. Particulars: 10 μM. As for the experimental part:
as §3

T1 sequence (P08183 whole entry): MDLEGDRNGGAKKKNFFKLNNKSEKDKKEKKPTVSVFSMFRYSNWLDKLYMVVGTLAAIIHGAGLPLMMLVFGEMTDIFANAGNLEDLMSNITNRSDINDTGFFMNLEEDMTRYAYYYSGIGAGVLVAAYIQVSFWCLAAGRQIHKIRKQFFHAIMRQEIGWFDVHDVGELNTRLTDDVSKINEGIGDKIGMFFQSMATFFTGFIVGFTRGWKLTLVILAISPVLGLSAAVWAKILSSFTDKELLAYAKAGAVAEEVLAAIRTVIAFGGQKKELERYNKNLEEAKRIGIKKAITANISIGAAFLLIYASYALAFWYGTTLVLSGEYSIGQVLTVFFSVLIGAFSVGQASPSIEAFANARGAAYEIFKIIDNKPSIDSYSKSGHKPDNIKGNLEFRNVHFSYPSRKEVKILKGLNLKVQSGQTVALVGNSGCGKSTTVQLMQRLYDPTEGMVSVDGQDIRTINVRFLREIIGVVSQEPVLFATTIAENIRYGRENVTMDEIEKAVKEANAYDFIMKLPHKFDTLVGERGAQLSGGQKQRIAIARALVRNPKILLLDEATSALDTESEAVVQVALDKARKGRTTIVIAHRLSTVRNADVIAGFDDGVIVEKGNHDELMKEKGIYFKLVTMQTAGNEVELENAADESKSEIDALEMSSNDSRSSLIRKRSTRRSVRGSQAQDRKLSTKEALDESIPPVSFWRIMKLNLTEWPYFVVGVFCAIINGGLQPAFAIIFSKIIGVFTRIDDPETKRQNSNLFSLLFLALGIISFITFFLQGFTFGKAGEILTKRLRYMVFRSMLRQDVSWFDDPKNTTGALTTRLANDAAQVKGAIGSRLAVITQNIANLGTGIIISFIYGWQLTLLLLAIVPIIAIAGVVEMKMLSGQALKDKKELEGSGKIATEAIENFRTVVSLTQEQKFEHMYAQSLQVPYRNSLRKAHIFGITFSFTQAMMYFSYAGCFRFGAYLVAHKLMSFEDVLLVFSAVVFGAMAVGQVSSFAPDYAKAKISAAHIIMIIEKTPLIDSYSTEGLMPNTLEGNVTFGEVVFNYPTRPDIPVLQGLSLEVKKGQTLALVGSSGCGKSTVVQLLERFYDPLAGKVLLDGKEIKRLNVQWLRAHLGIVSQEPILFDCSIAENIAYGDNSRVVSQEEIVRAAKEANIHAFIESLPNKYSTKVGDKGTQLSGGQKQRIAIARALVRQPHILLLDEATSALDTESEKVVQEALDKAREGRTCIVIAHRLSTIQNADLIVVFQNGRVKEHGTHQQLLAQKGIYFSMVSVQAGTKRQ

For `CC(=O)O[C@H]1C(=O)[C@@]2(C)[C@H]([C@H](OC(=O)c3ccccc3)[C@]3(O)C[C@H](OC(=O)[C@H](O)[C@@H](NC(=O)c4ccccc4)c4ccccc4)C(C)=C1C3(C)C)[C@]1(OC(C)=O)CO[C@@H]1C[C@@H]2O` [Paclitaxel, paclitaxel], the IC50 at 68 h stood at 0.107 ± 0.0112 µM in data set [1] and 219 ± 13.2 µM in data set [5]. The “fold-resistance, paclitaxel” value in [2] is “(1079.6)”; in data set [3] it was “(1.0)^c”; in data set [4], “(788.5)”.

As to `CN1CC(=O)N2[C@H](c3ccc4c(c3)OCO4)c3[nH]c4ccccc4c3C[C@@H]2C1=O` [Tadalafil, tadalafil], the IC50 in data set [6] is greater than 50 µM. Further, in data set [7], the “growth inhibition by the PDE5 inhibitor alone” value is recorded as “neither vardenafil nor tadalafil inhibited the growth of any cell lines tested”.

On to `CCCc1nc(C)c2c(=O)[nH]c(-c3cc(S(=O)(=O)N4CCN(CC)CC4)ccc3OCC)nn12` [Vardenafil, vardenafil], for which the “change in effluxed paclitaxel” value in [8] is on record as “No significant change”. For the same molecule, in [6], the IC50 came to 0.69 µM. Moreover, the inhibition at 5 min, 10 µM in [6] (pH 6.8, probe [125I]-IAAP (7 nM), 10 μM, read-out: inhibition of [^125I]-IAAP photolabeling) amounted to 90%. In data set [7], the “growth inhibition by the PDE5 inhibitor alone” value was “neither vardenafil nor tadalafil inhibited the growth of any cell lines tested”. For the same molecule, the “effect on paclitaxel accumulation” value in data set [9] is reported as “without altering the levels”.

As usually defined, the IC50 is the concentration needed to halve the response being measured. What is called inhibition is how much of the control response was suppressed.
